This is an account of results in patent US11913021B2, “Methods and compositions for promoting survival and proliferation of endothelial cells and stimulating angiogenesis” (Cornell Research Foundation, Inc., priority 2007, dated 2024).

Data set [1] relates to E4ORF1-infected ECs. Nature of the data set: Survival of E4ORF1-infected ECs with signaling inhibitors (trypan blue viable cell count). The format is cell-based, human. As to conditions: 10 μM, 2 days, serum-free, growth factor-free medium.
The test system of data set [2] is ECs. Nature of the data set: Time course of EC proliferation in serum-free medium with or without FGF-2 and VEGF-A. The following applies: FGF-2 5 ng/ml. It counts as cell-based, human. The method, then:
To further attribute the pro-survival effect of E4ORF1-expressing ECs through the activation of FGFR-1, recombinant FGF-2 (rFGF-2) was added to the serum-free culture medium (FIG. 3F).

Data set [3] deals with Lenti-E4ORF1 infected-ECs. Nature of the data set: Viable cell count of Lenti-E4ORF1-infected ECs with FGFR or VEGFR2 inhibitor. The following applies: 10 μM, 48 hours, with or without FGF-2.
In data set [4] the test system is VEGF-A. Nature of the data set: VEGF-A expression in ECs by ELISA and Western blot. It counts as cell-based. From the text:
Exposure of survival factors, such as FGF-2 and VEGF-A, is important for maintaining EC survival and migration (Meredith et al. (1993) Mol Biol Cell 4(9): 953-61). […] E4ORF1 product has been shown in this invention to increase FGF-2 expression in EC monolayers. […] Thus, the effect of E4ORF1 on the angiogenic process can result from an increase in endogenous FGF-2 expression. FGF-2 serves both paracrine and autocrine functions in the regulation of angiogenesis. […] Studies have shown that FGF-2 is a downstream target of PI3K in many important cellular pathways (Zhang et al. (2006) J Biol Chem 281(2):905-14; Weylie et al. (2006) J Vasc Res 43(1):61-9). However, FGF-2 can also activate PI3K/Akt signaling pathway (Vandermoere et al. (2005) Oncogene 24(35):5482-91). Thus, FGF2-activated Akt pathway may involve a positive feedback loop. Indeed, E4ORF1 activated both PI3K and FGF-2 expression, and thus, exerting a synergistic effect on EC survival and angiogenesis.

Data set [5] relates to human endothelial cells. The following applies: E4ORF1 from type 5 or 9 adenoviruses.

As to `COc1cccc(-c2cc(=O)c3ccccc3o2)c1N` [PD98059], the “effect on survival of E4ORF1-expressing ECs” value in data set [1] is “Neither PD98059 nor SB203580 had significant effects”.

Regarding `C[S+]([O-])c1ccc(-c2nc(-c3ccncc3)c(-c3ccc(F)cc3)[nH]2)cc1` (centres unmarked) [SB203580], the “effect on survival of E4ORF1-expressing ECs” value in data set [1] is recorded as “Neither PD98059 nor SB203580 had significant effects”.

In the case of rFGF-2: recombinant FGF-2, the “effect of added growth factor on ECs which did not express E4ORF1” value in data set [2] is listed as “briefly supported the survival”. The “effect of added growth factor on survival, proliferation or expansion of E4ORF1-expressing ECs” value in data set [2] (VEGF-A 10 ng/ml) was “robustly increased the proliferation of ECs”.

As to `Cc1c[nH]c(/C=C2\C(=O)Nc3ccccc32)c1CCC(=O)O` [SU5402], the “effect on survival or proliferation (expansion) of E4ORF1-infected ECs” value in data set [3] is “blocked this expansion”.

For the molecule `Cc1cc(C)c(/C=C2\C(=O)Nc3ccccc32)[nH]1` [SU5416], in data set [3], the “effect on survival or proliferation (expansion) of E4ORF1-infected ECs” value was “did not significantly affect the survival or proliferation”.

B1: E4ORF1: adenovirus E4ORF1 gene and its gene product, SEQ ID NO:1 from human adenovirus 5 (nucleic acid)
chain: ATGGCTGCCGCTGTGGAAGCGCTGTATGTTGTTCTGGAGCGGGAGGGTGCTATTTTGCCTAGGCAGGAGGGTTTTTCAGGTGTTTATGTGTTTTTCTCTCCTATTAATTTTGTTATACCTCCTATGGGGGCTGTAATGTTGTCTCTACGCCTGCGGGTATGTCTTCCCCCGGGCTATTCGGTCGCTTTTTAGCACTGACCGATGTGAATCAACCTGATGTGTTTACCGAGTCTTACATTATGCATCCGGACATGACCGAGGAGCTGTCAGTGGTGCTTTTTAATCACGGTGACCAGTTTTTTTACGGTCACGCCGGCATGGCCGTAGTCCGTCTTATGCTTATAAGGGTTGTTTTTCCTGTTGTAAGACAGGCTTCTAATGTTTAA
modifications: Human adenovirus type 5
For B1, the “changes of VEGF-A expression in ECs” value in data set [4] is recorded as “not detectable”. The oncogenic effect result in data set [5] is “no oncogenic effect”.
